Assay results: patent US20220386606A1, “SPECIFICALLY SUBSTITUTED 3-PHENYL-5-SPIROCYCLOPENTYL-3-PYRROLIN-2-ONES AND THEIR USE AS HERBICIDES” (Bayer Aktiengesellschaft, priority 2019, published 2022)

Assays:
VERPE [1] = assay: Pre-emergence herbicidal action against VERPE; assay type: in vivo, Veronica persica; settings: 320 g/ha
Method in brief: (§1)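 Scoring is visual, 3 weeks post-application, on a 0 to 100% scale relative to untreated controls (100% = plants died). Treatment is pre-emergence: aqueous suspensions or emulsions applied to the covering soil at 600 to 800 L/ha with 0.2% wetting agent.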

AVEFA [2] = assay: Pre-emergence herbicidal action against AVEFA; assay type: in vivo, Avena fatua; settings: 320 g/ha, scored visually after 3 weeks vs untreated controls
Method in brief: as §1

DIGSA [3] = assay: Post-emergence herbicidal action against DIGSA; assay type: in vivo, Digitaria sanguinalis; settings: 80 g/ha, visual assessment about 3 weeks after treatment vs untreated controls
Method in brief: (§2)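 Plants at the one-leaf stage receive a foliar spray of the formulated compound, with a 600 to 800 l/ha water rate and 0.2% wetting agent. Percent activity is judged by eye after roughly 3 weeks in the greenhouse.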

LOLRI [4] = assay: Post-emergence herbicidal action against LOLRI; assay type: in vivo, Lolium rigidum; settings: 80 g/ha, visual assessment about 3 weeks after treatment vs untreated controls
Method in brief: as §2

VIOTR [5] = assay: Pre-emergence herbicidal action against VIOTR; assay type: in vivo, Viola tricolor; settings: 320 g/ha
Method in brief: as §1

SETVI [6] = assay: Pre-emergence herbicidal action against SETVI; assay type: in vivo, Setaria viridis; settings: 320 g/ha, scored visually after 3 weeks vs untreated controls
Method in brief: as §1

ALOMY [7] = assay: Pre-emergence herbicidal action against ALOMY; assay type: in vivo, Alopecurus myosuroides; settings: 320 g/ha, scored visually after 3 weeks vs untreated controls
Method in brief: as §1

SETVI [8] = assay: Post-emergence herbicidal action against SETVI; assay type: in vivo, Setaria viridis; settings: 80 g/ha, visual assessment about 3 weeks after treatment vs untreated controls
Method in brief: as §2

ECHCG [9] = assay: Post-emergence herbicidal action against ECHCG; assay type: in vivo, Echinochloa crus-galli; settings: 80 g/ha, visual assessment about 3 weeks after treatment vs untreated controls
Method in brief: as §2

ECHCG [10] = assay: Pre-emergence herbicidal action against ECHCG; assay type: in vivo, Echinochloa crus-galli; settings: 320 g/ha, scored visually after 3 weeks vs untreated controls
Method in brief: as §1

LOLRI [11] = assay: Pre-emergence herbicidal action against LOLRI (Table 8, titled post-emergence at 320 g/ha); assay type: in vivo, Lolium rigidum; settings: table stands in the pre-emergence section
Method in brief: as §1

DIGSA [12] = assay: Pre-emergence herbicidal action against DIGSA; assay type: in vivo, Digitaria sanguinalis; settings: 320 g/ha, scored visually after 3 weeks vs untreated controls
Method in brief: as §1

VERPE [13] = assay: Post-emergence herbicidal action against VERPE; assay type: in vivo, Veronica persica; settings: 80 g/ha, visual assessment about 3 weeks after treatment vs untreated controls
Method in brief: as §2

POLCO [14] = assay: Post-emergence herbicidal action against POLCO; assay type: in vivo, Polygonum convolvulus; settings: 80 g/ha, visual assessment about 3 weeks after treatment vs untreated controls
Protocol: (§3) Seeds of monocotyledonous and dicotyledonous weed and crop plants are laid out in sandy loam soil in wood-fiber pots, covered with soil and cultivated in a greenhouse under good growth conditions. 2 to 3 weeks after sowing, the test plants are treated at the one-leaf stage. The compounds of the invention, formulated in the form of wettable powders (WP) or as emulsion concentrates (EC), are then sprayed onto the green parts of the plants as aqueous suspension or emulsion at a water application rate equating to 600 to 800 l/ha with addition of 0.2% wetting agent. After the test plants have been left to stand in the greenhouse under optimal growth conditions for about 3 weeks, the action of the preparations is assessed visually in comparison to untreated controls (herbicidal action in percent (%): 100% activity=the plants have died, 0% activity=like control plants).

ALOMY [15] = assay: Post-emergence herbicidal action against ALOMY; assay type: in vivo, Alopecurus myosuroides; settings: 80 g/ha, visual assessment after about 3 weeks
Method in brief: as §2

HORMU = assay: Post-emergence herbicidal action against HORMU; assay type: in vivo, Hordeum murinum; settings: 80 g/ha, visual assessment about 3 weeks after treatment vs untreated controls
Method in brief: as §2

ABUTH [16] = assay: Post-emergence herbicidal action against ABUTH; assay type: in vivo, Abutylon threophrasti; settings: 80 g/ha, visual assessment about 3 weeks after treatment vs untreated controls
Method in brief: as §2

AVEFA [17] = assay: Post-emergence herbicidal action against AVEFA; assay type: in vivo, Avena fatua; settings: 80 g/ha, visual assessment after about 3 weeks
Method in brief: as §2

VIOTR [18] = assay: Post-emergence herbicidal action against VIOTR; assay type: in vivo, Viola tricolor; settings: 80 g/ha, visual assessment about 3 weeks after treatment vs untreated controls
Method in brief: as §2

ABUTH [19] = assay: Pre-emergence herbicidal action against ABUTH; assay type: in vivo, Abutylon threophrasti; settings: 320 g/ha
Method in brief: as §1

PHBPU [20] = assay: Post-emergence herbicidal action against PHBPU; assay type: in vivo; settings: assessed visually after about 3 weeks, 100% = plants have died, 0% = like control plants
Protocol: as §3

POLCO [21] = assay: Pre-emergence herbicidal action against POLCO; assay type: in vivo, Polygonum convolvulus; settings: 320 g/ha
Method in brief: as §1

AMARE = assay: Pre-emergence herbicidal action against AMARE; assay type: in vivo, Amaranthus retroflexus; settings: 320 g/ha
Method in brief: as §1

MATIN = assay: Pre-emergence herbicidal action against MATIN; assay type: in vivo; settings: 320 g/ha
Method in brief: as §1

PHBPU [22] = assay: Pre-emergence herbicidal action against PHBPU; assay type: in vivo; settings: scored visually after 3 weeks, 100% = plants have died, 0% = like control plants
Text: Seeds of monocotyledonous and dicotyledonous weed plants and crop plants are laid out in sandy loam soil in wood-fiber pots and covered with soil. The compounds of the invention, formulated in the form of wettable powders (WP) or as emulsion concentrates (EC), are then applied to the surface of the covering soil as aqueous suspension or emulsion at a water application rate equating to 600 to 800 L/ha with addition of 0.2% wetting agent.
After the treatment, the pots are placed in a greenhouse and kept under good growth conditions for the trial plants. The damage to the test plants is scored visually after a test period of 3 weeks by comparison with untreated controls (herbicidal activity in percent (%): 100% activity=the plants have died, 0% activity=like control plants).

SMILES: CC#Cc1cc(Br)c(C2=C(O)[C@]3(CC[C@H](COCC)C3)NC2=O)c(OC)c1 (stereo in doubt) [Example I-11, 3-(2-Bromo-6-methoxy-4-prop-1-ynylphenyl)-8-(ethoxymethyl)-4-hydroxy-1-azaspiro[4.4]non-3-en-2-one]
- Pre-emergence action against VERPE in % (VERPE [1]): 100%
- Pre-emergence action against AVEFA in % (AVEFA [2]): 100%
- Post-emergence action against DIGSA in % (DIGSA [3]): 100%
- Post-emergence action against LOLRI in % (LOLRI [4]): 100%
- Pre-emergence action against VIOTR in % (VIOTR [5]): 90%
- Pre-emergence action against SETVI in % (SETVI [6]): 100%
- Pre-emergence action against ALOMY in % (ALOMY [7]): 100%
- Post-emergence action against SETVI in % (SETVI [8]): 100%
- Post-emergence action against ECHCG in % (ECHCG [9]): 100%
- Pre-emergence action against ECHCG in % (ECHCG [10]): 100%
- Pre-emergence herbicidal action against LOLRI in % (LOLRI [11]): 100%
- Pre-emergence action against DIGSA in % (DIGSA [12]): 100%
- Post-emergence action against VERPE in % (VERPE [13]): 80%
- Post-emergence action against POLCO in % (POLCO [14]): 80%
- Post-emergence action against ALOMY in % (ALOMY [15]): 100%

SMILES: CC#Cc1cc(C)c(C2=C(OC(=O)C(C)C)C3(CCC(COC)C3)NC2=O)c(Cl)c1 (stereo not shown) [Example P-16]
- Post-emergence action against DIGSA in % (DIGSA [3]): 100%
- Post-emergence action against LOLRI in % (LOLRI [4]): 100%
- Post-emergence action against HORMU in % (HORMU): 100%
- Post-emergence action against ABUTH in % (ABUTH [16]): 80%
- Post-emergence action against SETVI in % (SETVI [8]): 100%
- Post-emergence action against ECHCG in % (ECHCG [9]): 100%
- Post-emergence action against AVEFA in % (AVEFA [17]): 100%
- Post-emergence action against VIOTR in % (VIOTR [18]): 80%
- Post-emergence action against POLCO in % (POLCO [14]): 80%
- Post-emergence action against ALOMY in % (ALOMY [15]): 100%

SMILES: CC#Cc1cc(Br)c(C2=C(O)C3(CCC(COCC)C3)NC2=O)c(OC)c1 (stereo not shown) [Example I-05]
- Pre-emergence action against AVEFA in % (AVEFA [2]): 100%
- Post-emergence action against DIGSA in % (DIGSA [3]): 100%
- Post-emergence action against LOLRI in % (LOLRI [4]): 100%
- Pre-emergence action against VIOTR in % (VIOTR [5]): 90%
- Pre-emergence action against ABUTH in % (ABUTH [19]): 80%
- Pre-emergence action against SETVI in % (SETVI [6]): 100%
- Post-emergence action against ABUTH in % (ABUTH [16]): 80%
- Pre-emergence action against ALOMY in % (ALOMY [7]): 100%
- Post-emergence action against SETVI in % (SETVI [8]): 100%
- Post-emergence action at 80 g/ha against PHBPU in % (PHBPU [20]): 80%
- Post-emergence action against ECHCG in % (ECHCG [9]): 100%
- Pre-emergence action against ECHCG in % (ECHCG [10]): 100%
- Pre-emergence herbicidal action against LOLRI in % (LOLRI [11]): 100%
- Pre-emergence action against POLCO in % (POLCO [21]): 80%
- Pre-emergence action against DIGSA in % (DIGSA [12]): 100%
- Post-emergence action against POLCO in % (POLCO [14]): 100%
- Post-emergence action against ALOMY in % (ALOMY [15]): 100%

SMILES: CC#Cc1cc(C)c(C2=C(OC(=O)OCC)C3(CCC(COC)C3)NC2=O)c(F)c1 (stereo not shown) [Example P-51]
- Pre-emergence action against AVEFA in % (AVEFA [2]): 80%
- Post-emergence action against DIGSA in % (DIGSA [3]): 100%
- Post-emergence action against LOLRI in % (LOLRI [4]): 100%
- Pre-emergence action against VIOTR in % (VIOTR [5]): 100%
- Pre-emergence action against ABUTH in % (ABUTH [19]): 80%
- Pre-emergence action against SETVI in % (SETVI [6]): 100%
- Post-emergence action against ABUTH in % (ABUTH [16]): 80%
- Pre-emergence action against ALOMY in % (ALOMY [7]): 100%
- Post-emergence action against ECHCG in % (ECHCG [9]): 100%
- Pre-emergence action against ECHCG in % (ECHCG [10]): 100%
- Pre-emergence herbicidal action against LOLRI in % (LOLRI [11]): 100%
- Pre-emergence action against POLCO in % (POLCO [21]): 90%
- Post-emergence action against AVEFA in % (AVEFA [17]): 100%
- Pre-emergence action against DIGSA in % (DIGSA [12]): 100%
- Pre-emergence action against AMARE in % (AMARE): 90%
- Post-emergence action against POLCO in % (POLCO [14]): 80%
- Post-emergence action against ALOMY in % (ALOMY [15]): 100%

SMILES: CC#Cc1cc(Br)c(C2=C(OC(=O)OCC)[C@]3(CC[C@H](COCC)C3)NC2=O)c(OC)c1 (stereo in doubt) [Example P-13, [3-(2-Bromo-6-methoxy-4-prop-1-ynyl-phenyl)-8-(ethoxymethyl)-2-oxo-1-azaspiro[4.4]non-3-en-4-yl] ethyl carbonate]
- Pre-emergence action against AVEFA in % (AVEFA [2]): 100%
- Post-emergence action against DIGSA in % (DIGSA [3]): 100%
- Post-emergence action against LOLRI in % (LOLRI [4]): 100%
- Pre-emergence action against VIOTR in % (VIOTR [5]): 100%
- Pre-emergence action against MATIN in % (MATIN): 80%
- Pre-emergence action against SETVI in % (SETVI [6]): 100%
- Post-emergence action against ABUTH in % (ABUTH [16]): 80%
- Pre-emergence action against ALOMY in % (ALOMY [7]): 100%
- Post-emergence action against SETVI in % (SETVI [8]): 100%
- Post-emergence action against ECHCG in % (ECHCG [9]): 100%
- Pre-emergence action against ECHCG in % (ECHCG [10]): 100%
- Pre-emergence herbicidal action against LOLRI in % (LOLRI [11]): 100%
- Pre-emergence action against POLCO in % (POLCO [21]): 80%
- Pre-emergence action against DIGSA in % (DIGSA [12]): 100%
- Pre-emergence action against AMARE in % (AMARE): 90%
- Post-emergence action against ALOMY in % (ALOMY [15]): 100%
- Pre-emergence action at 320 g/ha against PHBPU in % (PHBPU [22]): 100%
